This is an account of results in patent US20120070392A1, “COMPOSITION FOR INHIBITING ERYTHEMA CAUSED BY ULTRAVIOLET RADIATION CONTAINING A DIPEPTIDE AS ACTIVE INGREDIENT” (priority 2009, published 2012).

One assay has as its system PGE2 production. Briefly: Inhibition of UVB-induced PGE2 production in cultured human keratinocytes (PGE2 assay kit, calibrated with MTT absorbance). It counts as cell-based.
Conditions: not given
The procedure: Human keratinocytes were seeded at a density of 1×10^5 cells/well to 6-well plates containing 2 mL of KGM(keratinocyte growth medium, Clonetics, San Diego, Calif., USA) per well and cultured overnight. Then, the medium was replaced with KBM(keratinocyte basal medium) supplemented with 0.1% BSA(bovine serum albumin) and the cells were cultured for an additional 24 hours. Subsequently, the cells were pre-treated for an additional 24 hours with 2 mL of the same medium containing 10 μg/ml of each of the dipeptides listed in Table 1. […] The pre-treated medium was transferred to new 24 well plates and 1 mL of DPBS(Dulbecco's phosphate buffered saline) was added to the cells in each well. During UV irradiation, the transferred medium was stored in a cell incubator. […] At this time, the control was covered with aluminum foil. After the removal of DPBS, the transferred medium was returned to each well. The cells were further cultured for 24 hours, after which 1 mL of the medium was transferred to microcentrifuge tubes. […] The supernatants were then removed and the formazan crystals were solubilized in 1 ml of DMSO(dimethylsulfoxide). One hundred μL of the solution was transferred to each well of 96-well plates and an optical density was determined at 540 nm using an ELISA(enzyme-linked immunosorbent assay) reader. […] The concentration of PGE2 was determined using a PGE2 Assay Kit(KGE004, R&D Systems, Inc., Minneapolis, Minn., USA) according to the manufacturer's instruction. […] After removal of the reaction, the wells were washed five times with 400 μL of wash buffer. To each well was added 200 μL of a substrate solution, followed by incubation for 20 30 min. The reaction was terminated with 50 μL of a stop solution per well before determining absorbance at 450 nm on an ELISA reader. The PGE2 concentration of each sample was calculated from the standard graph and calibrated with the absorbance obtained in the MTT assay to determine their inhibitory activity against PGE2 production.
Take threonine-methionine [TM]: the “% Inhibition against PGE2 Production” value amounted to 67.9%.
As to threonine-proline [TP], the “% Inhibition against PGE2 Production” value came out at 65.7%.
The same measure, in the same setting: for threonine-valine [TV] the value was 43.9%.
For the substance tryptophan-methionine [WM], the “% Inhibition against PGE2 Production” value worked out at 50.6%.
Still for that read-out and setting: for tryptophan-proline [WP] the value was 68.3%; for tyrosine-arginine, 83.7%; for tyrosine-aspartic acid [YD], 88.0%.
The same measure, in the same setting: for tyrosine-glutamic acid [YE] the value was 74.2%; for tyrosine-glutamine [YQ], 13.5%; for tyrosine-isoleucine [YI], 44.3%.
On the same count and under the same terms, the figure for tyrosine-leucine [YL] is 24.7%; for tyrosine-lysine [YK] it is 89.9%.
As to tyrosine-methionine [YM], the “% Inhibition against PGE2 Production” value is 89.6%.
The same measure, in the same setting: the figure for tyrosine-phenylalanine [YF] is 12.7%; for tyrosine-threonine [YT] it is 91.5%; for tyrosine-tyrosine [YY] it is 83.5%.
Turning to valine-asparagine [VN], the “% Inhibition against PGE2 Production” value amounted to 31.3%.

The same assay, now with this note: 10 μg/ml dipeptide, 24 h pre-treatment, human keratinocytes, UVB 100 mJ/cm^2, medium assayed 24 h after irradiation; 0% or lower expressed as zero; 10% or more regarded as effective.
In the case of tryptophan-alanine [WA], the “% Inhibition against PGE2 Production” value came out at 88.5%.
The same measure, in the same setting: the figure for tyrosine-alanine [YA] is 80.2%; for valine-alanine it is 64.7%.

The assay is the same for the next values; noted with them: 10 μg/ml dipeptide, 24 h pre-treatment, human keratinocytes, UVB 100 mJ/cm^2, medium assayed 24 h after irradiation; […]; 10% or more regarded as effective.
Regarding threonine-arginine [TR], the “% Inhibition against PGE2 Production” value is recorded as 53.0%.
In the case of threonine-aspartic acid [TD], the “% Inhibition against PGE2 Production” value is given as 77.6%.
Still for that read-out and setting: for threonine-glutamic acid [TE] the value was 82.5%.
Still for that read-out and setting: for threonine-glutamine [TQ] the value was 51.2%.
Same read-out and setting: for threonine-isoleucine [TI] the value was 36.3%; for threonine-lysine [TK], 39.0%.
threonine-phenylalanine [TF]: the “% Inhibition against PGE2 Production” value is on record as 77.3%.
Same read-out and setting: for threonine-serine [TS] the value was 55.7%; for threonine-tryptophan [TW], 54.8%.
Still for that read-out and setting: for tryptophan-arginine [WR] the value was 83.7%; for tryptophan-asparagine [WN], 33.1%; for tryptophan-aspartic acid [WD], 85.9%.
For the substance tryptophan-cysteine [WC], the “% Inhibition against PGE2 Production” value was 18.3%.
As to tryptophan-glutamic acid [WE], the “% Inhibition against PGE2 Production” value is listed as 79.9%.
Consider tryptophan-glutamine [WQ], for which the “% Inhibition against PGE2 Production” value was determined as 88.7%.
Regarding tryptophan-histidine [WH], the “% Inhibition against PGE2 Production” value stood at 96.1%.
On the same count and under the same terms, for tryptophan-leucine [WL] the value was 90.2%; for tryptophan-lysine [WK], 78.3%.
The same measure, in the same setting: the figure for tryptophan-phenylalanine [WF] is 81.7%.
The same measure, in the same setting: the figure for tryptophan-serine [WS] is 89.0%.
As for tryptophan-tryptophan [WW], the “% Inhibition against PGE2 Production” value was 34.8%.
tryptophan-tyrosine [WY]: the “% Inhibition against PGE2 Production” value was found to be 55.6%.
On the same count and under the same terms, the figure for tryptophan-valine [WV] is 79.6%; for valine-arginine [VR] it is 52.5%; for valine-aspartic acid [VD] it is 45.3%.
